Laboratory results as given in US20210106567A1, “COMPOSITIONS AND METHODS FOR INHIBITING CARP-1 BINDING TO NEMO” (United States Government As Represented By The Department …, priority 2019, published 2021).

What was measured:
[1] = system: RENCA renal cancer tumors; conditions: mouse, in vivo
Protocol: The subcutaneous tumor bearing mice were treated with indicated agents. […] The end-points for assessing anti-tumor activity involved qualitative determination via tumor growth inhibition (% T/C) where T is the median tumor volume of the treated mice and C is the median tumor volume of the Control mice on any given day of measurement.

[2] = system: diffuse large B cell lymphoma cells; experiment: Cell viability, lymphoma; assay type: cell-based; conditions: Homo sapiens, read-out: IC50, reduced viabilities
[3] = Dose-route determination in non-tumor-bearing mice; assay type: in vivo, mouse; conditions: 5% DMSO, 5% ethanol, 2% Tween 80 formulation
[4] = target: T1, Flag-CARP-1 (546-580) binding with Biotin-NEMO (221-261) (Homo sapiens, UniProt Q8IX12); experiment: AlphaLISA assay of CARP-1/NEMO peptide binding (HTS format); conditions: biphasic, read-out: IC50, inhibition of binding of CARP-1 (546-580) with NEMO (221-261) peptide
T1 construct: Flag-tagged CARP-1 (546-580); purchased Peptides America, Fairfax, Va; host or cells: chemical synthesis
T1 sequence (Q8IX12 546-580 limits assumed): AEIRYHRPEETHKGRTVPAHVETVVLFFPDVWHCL
Text: The predicted kinetics of interaction of CARP-1 (551-600; SEQ ID NO: 5) and NEMO (221-261; SEQ ID NO: 2) epitopes was further validated by utilizing respective, chemically synthesized peptides to determine their in-solution binding by SPR technology (Sekhar et al. (2019) Cancers (Basel) 11). […] On the collective basis of the data in FIG. 1, and biophysical and SPR data above, in vitro binding assays were developed utilizing chemically synthesized CARP-1 and NEMO peptides. In the first instance, CARP-1 (551-580; SEQ ID NO: 6) and NEMO (221-261; SEQ ID NO: 2) peptides were used to carry out buffer optimization and DMSO tolerance of the assay. […] Presence of 0.01% tween minimizes non-specific binding and generates higher reproducibility as noted by smaller error bars in FIG. 15A. […]
The AlphaLISA assay for high throughput screening: For screening of a library of chemical compounds, an […] assay was developed and optimized for use in 384-well format (SAMDI Tech, Chicago, Ill.). […] The assay signal (Fluorescence) was measured at 680 nm excitation and 615 nm emission wavelengths to determine assay robustness and DMSO tolerance. […] The plates were read on a Pherastar FS plate reader. […] Those wells were further analyzed to investigate the 8 compounds individually in duplicate.

[5] = target: T2, NEMO interaction with CARP-1 (Homo sapiens, UniProt Q8IX12); experiment: IP-WB in Gst-NEMO expressing HBC cells, CARP-1; assay type: cell-based; conditions: alone or in combination with Adriamycin
T2 construct: expressed in transfected cells; host or cells: HBC cells stably expressing Gst-NEMO
T2 sequence (Q8IX12 whole entry): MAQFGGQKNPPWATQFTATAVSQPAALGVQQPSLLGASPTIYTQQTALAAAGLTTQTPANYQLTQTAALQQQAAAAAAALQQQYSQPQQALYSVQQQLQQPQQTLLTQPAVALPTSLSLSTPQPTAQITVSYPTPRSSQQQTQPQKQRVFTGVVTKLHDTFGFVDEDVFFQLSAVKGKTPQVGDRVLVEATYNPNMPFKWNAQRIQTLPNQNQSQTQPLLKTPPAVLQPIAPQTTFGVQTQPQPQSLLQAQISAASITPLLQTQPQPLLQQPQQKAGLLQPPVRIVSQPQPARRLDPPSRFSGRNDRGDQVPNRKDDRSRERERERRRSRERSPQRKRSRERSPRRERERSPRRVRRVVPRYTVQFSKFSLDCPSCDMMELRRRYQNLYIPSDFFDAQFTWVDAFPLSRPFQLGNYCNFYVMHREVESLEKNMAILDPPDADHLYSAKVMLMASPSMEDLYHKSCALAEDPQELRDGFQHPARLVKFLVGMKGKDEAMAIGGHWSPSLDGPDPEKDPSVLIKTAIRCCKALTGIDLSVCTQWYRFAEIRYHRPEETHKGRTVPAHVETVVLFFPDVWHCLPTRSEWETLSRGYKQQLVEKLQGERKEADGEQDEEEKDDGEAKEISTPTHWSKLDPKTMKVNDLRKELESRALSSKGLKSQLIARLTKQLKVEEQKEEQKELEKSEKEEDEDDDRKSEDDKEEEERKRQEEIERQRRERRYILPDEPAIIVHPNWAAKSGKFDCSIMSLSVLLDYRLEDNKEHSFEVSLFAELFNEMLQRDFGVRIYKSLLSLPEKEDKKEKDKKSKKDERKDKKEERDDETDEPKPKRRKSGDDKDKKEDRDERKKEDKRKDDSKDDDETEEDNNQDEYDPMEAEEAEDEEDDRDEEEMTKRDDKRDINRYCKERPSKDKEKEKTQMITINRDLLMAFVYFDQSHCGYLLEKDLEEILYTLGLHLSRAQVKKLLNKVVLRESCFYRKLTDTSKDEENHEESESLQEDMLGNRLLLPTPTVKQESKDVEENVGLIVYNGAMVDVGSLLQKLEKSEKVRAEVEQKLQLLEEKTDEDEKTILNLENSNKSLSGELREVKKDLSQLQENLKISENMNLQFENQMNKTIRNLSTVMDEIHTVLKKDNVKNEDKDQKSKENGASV
Protocol: (§1) The biochemical mechanism of inhibition of CARP-1 (551-580; SEQ ID NO: 6) binding with NEMO (221-261; SEQ ID NO: 2) by SNI-1 was assessed. E. coli expressed Gst-NEMO (221-261; SEQ ID NO: 2) and His-TAT-HA-CARP-1 (551-580; SEQ ID NO: 6) peptides in IP-WB assays were used. […] Since Adriamycin activates ATM to regulate canonical NF-κB and DSB repair pathways, it remains to be clarified whether CARP-1 regulates RIPK1 signaling dependent and/or independent of ATM.
(§2) The cells were lysed to prepare protein extracts.

[6] = target: T3, His-TAT-HA-CARP-1 (551-580) binding with Gst-NEMO (221-261) (Homo sapiens, UniProt Q8IX12); experiment: Pull-down and Western blot with E. coli expressed peptides; conditions: then washed
T3 construct: His-TAT-HA-CARP-1 (551-580); made in house; host or cells: E. coli BL21
T3 sequence (Q8IX12 551-580 limits assumed): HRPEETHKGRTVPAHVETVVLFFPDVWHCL
Protocol: as §1, §2

Compound: Cc1ccc(-n2nnnc2SCC(=O)c2ccc(O)c(O)c2)cc1 [SNI-1, 1-(3,4-dihydroxyphenyl)-2-{(1-(4-methylphenyl)-1H-tetrazol-5-yl)thio}ethanone]
- weight loss in animals [1]: 0.4-4.0%
- IC50 [2]: ~10 µM
- suitability for chronic intravenous administration [3]: not suitable for chronic intravenous administration
- IC50 [4]: ~0.3 µM
- NEMO interaction with CARP-1 (IP-WB) [5]: abrogated NEMO interaction with CARP-1
- binding of Gst-NEMO (221-261) with His-TAT-HA-CARP-1 (551-580) peptide ([6]; compound incubated with CARP-1 peptide immobilized on Ni-NTA beads): abrogated binding
- binding of His-TAT-HA-CARP-1 (551-580) with Gst-NEMO (221-261) peptide ([6]; compound incubated with Gst-NEMO peptide immobilized on Gst sepharose beads): failed to abrogate binding
